Type in all cases: in vitro ADME
Data set [1] is described as follows: Protein binding rate test (human serum, equilibrium dialysis). The note with it: test compound 0.001 mmol/L, equilibrium dialysis 37° C. 6 hours. As to the method:
A serum sample was prepared by adding a test compound solution to a human serum (final concentration of the test compound: 0.001 mmol/L). The serum sample and Dulbecco's Phosphate-Buffered Saline (D-PBS(−)) were added to the wells separated by a dialysis membrane to start the reaction. A solution of the internal standard in methanol was prepared and used as a quenching solution.
Specifically, the dialysis membrane (cut-off molecular weight 12000-14000) was pre-conditioned by immersing it in distilled water, followed by 20% ethanol. Then, the membrane was washed with D-PBS(−) and set in an equilibrium dialysis kit. Then, 150 μL of D-PBS(−) was added to one part of each well divided by the dialysis membrane, and 150 μL of serum sample was added to the other part. After sealing all wells and incubation at 37° C. for 6 hours, 30 μL from the serum side and 90 μL from the PBS side of each well were collected and mixed with 90 μL of D-PBS(−) or 30 μL of blank serum and 480 μL of a quenching solution to quench the reaction.
(§1) The mixture was centrifuged (6130 g, 4° C., 10 minutes) and the supernatant was used as a sample for LC-MS/MS.
Peak area ratio ([peak area of test compound]/[peak area of internal standard]) was calculated for the test compound and the internal standard. By comparing the peak area ratio of the PBS side for each test compound with that of the serum side, the protein binding rate (%) of each test compound was calculated from (1-[peak area ratio of PBS side]/[peak area ratio of serum side])×100.
In general terms: In equilibrium dialysis only unbound substance equilibrates across the membrane.

The next data set deals with T1, CYP2D6 (Homo sapiens, UniProt P10635).
T1 construct: a human liver microsome solution containing three CYP-specific substrates; from tissue; host or cells: human liver microsomes
T1 sequence (P10635 whole entry): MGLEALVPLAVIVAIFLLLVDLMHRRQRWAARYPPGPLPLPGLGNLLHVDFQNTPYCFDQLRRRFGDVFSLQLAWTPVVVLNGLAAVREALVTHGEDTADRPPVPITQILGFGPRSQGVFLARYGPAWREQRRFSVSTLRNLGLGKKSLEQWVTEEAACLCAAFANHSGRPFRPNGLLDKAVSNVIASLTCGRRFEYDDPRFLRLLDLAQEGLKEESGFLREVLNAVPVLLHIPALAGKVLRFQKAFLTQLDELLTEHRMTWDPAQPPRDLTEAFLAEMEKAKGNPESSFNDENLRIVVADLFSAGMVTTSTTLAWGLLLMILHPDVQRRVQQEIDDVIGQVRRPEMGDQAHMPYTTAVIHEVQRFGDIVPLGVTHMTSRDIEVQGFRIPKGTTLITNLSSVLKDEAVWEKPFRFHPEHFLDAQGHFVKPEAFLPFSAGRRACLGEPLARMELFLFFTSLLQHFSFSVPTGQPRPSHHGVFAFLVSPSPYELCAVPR
The data set is described as follows: CYP inhibition test (1): inhibition rate (%) at one concentration, CYP2D6. The note with it: human liver microsomes, pH 7.4, probe bufuralol (0.01 mmol/L); test compound 0.01 mmol/L, human liver microsome 0.1 mg/mL, substrate bufuralol, 37° C. 10 minutes; read-out: inhibition rate (%) 2D6. As to the method: (§2) A metabolic reaction was initiated by adding and mixing a test compound solution (final concentration 0.01 mmol/L) and a NADH/NADPH solution (final concentration 1 mmol/L) to a human liver microsome solution containing three CYP-specific substrates (final concentration 100 mmol/L potassium phosphate buffer solution (pH 7.4), 5 mmol/L magnesium chloride, 0.1 mg/mL human liver microsome, 0.005 mmol/L diclofenac (for CYP2C9), 0.01 mmol/L bufuralol (for […]), 0.005 mmol/L midazolam (for CYP3A4)). As an internal standard solution, a solution of each of stable isotopes of the metabolites (50 ng/mL [13C6] hydroxy diclofenac, 5 ng/mL [2H9] hydroxy bufuralol, and 5 ng/mL [13C6] hydroxy midazolam (all stable isotopes)) in methanol was prepared and used as a quenching solution.
(§3) Specifically, a metabolic reaction was initiated by adding and mixing 2 μL of a solution of a test compound in acetonitrile (or acetonitrile as a control) to 178 μL of a human liver microsome solution in ice water, followed by preincubation at 37° C. for 1 minute, and then adding 20 μL of a NADH/NADPH solution thereto. After incubation at 37° C. for 10 minutes, 50 μL of the reaction mixture was taken, and then it was added and mixed to 500 μL of a quenching solution to quech the reaction. The mixture was centrifuged (6130 g, 4° C., 10 minutes) and the supernatant was used as a sample for LC-MS/MS.
(§4) Peak area ratio ([peak area of metabolite]/[peak area of corresponding stable isotope]) was calculated for a metabolite and a stable isotope of the metabolite as measurement object. By comparing the peak area ratio of each test compound solution with that of the control, the inhibition rate (%) of each CYP species for each test compound was calculated from (1-[peak area ratio of each test compound solution]/[peak area ratio of control])×100.
On the technique in general: Liver microsomes are a subcellular fraction often used to study metabolism.

The target in another data set is T2, CYP3A4 (Homo sapiens, UniProt P08684).
T2 construct: a human liver microsome solution containing three CYP-specific substrates; from tissue; host or cells: human liver microsomes
T2 sequence (P08684 whole entry): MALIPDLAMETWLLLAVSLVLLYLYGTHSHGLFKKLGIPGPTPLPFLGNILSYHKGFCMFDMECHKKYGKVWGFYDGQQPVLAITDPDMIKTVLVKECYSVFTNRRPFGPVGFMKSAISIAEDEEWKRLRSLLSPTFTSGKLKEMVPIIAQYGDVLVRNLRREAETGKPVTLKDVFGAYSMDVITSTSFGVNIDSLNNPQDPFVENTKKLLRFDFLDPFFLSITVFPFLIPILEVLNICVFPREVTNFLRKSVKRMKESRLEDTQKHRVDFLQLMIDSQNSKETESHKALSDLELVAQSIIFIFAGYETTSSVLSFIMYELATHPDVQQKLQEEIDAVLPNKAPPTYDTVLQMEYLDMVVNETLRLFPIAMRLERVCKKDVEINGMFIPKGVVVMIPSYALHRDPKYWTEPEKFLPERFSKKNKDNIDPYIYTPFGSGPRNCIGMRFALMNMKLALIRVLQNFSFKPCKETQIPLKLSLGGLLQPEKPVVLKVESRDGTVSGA
Nature of the data set: CYP inhibition test (1): inhibition rate (%) at one concentration, CYP3A4. The note with it: human liver microsomes, pH 7.4, probe midazolam (0.005 mmol/L); test compound 0.01 mmol/L, human liver microsome 0.1 mg/mL, substrate midazolam, 37° C. 10 minutes; read-out: inhibition rate (%) 3A4. As to the method:
as §2, §3, §4

A short description of data set [2]: Metabolic stability test (human liver microsome, hepatic intrinsic clearance). The settings on record: human liver microsomes, pH 7.4; human liver microsome 0.2 mg/mL, test compound 0.001 mmol/L, 37° C., 0, 10 and 20 minutes. As for the experimental part:
A metabolic reaction was initiated by adding and mixing a test compound solution (final concentration 0.001 mmol/L) and a NADH/NADPH solution (final concentration 1 mmol/L) to a human liver microsome solution (final concentration 100 mmol/L potassium phosphate buffer solution (pH 7.4), 5 mmol/L magnesium chloride, 0.2 mg/ml, human liver microsome). A solution of the internal standard in methanol was prepared and used as a quenching solution.
Specifically, a metabolic reaction was initiated by adding and mixing 2.5 μL of a solution of a test compound in acetonitrile to 222.5 μL of a human liver microsome solution in ice water, followed by preincubation at 37° C. for 1 minute, and then adding 25 μL of a NADH/NADPH solution thereto.
as §1
Peak area ratio ([peak area of test compound]/[peak area of internal standard]) was calculated for the test compound and the internal standard.
The residual ratio of the test compound was calculated from ([Ratio of peak areas at each reaction time]/[Ratio of peak areas at 0 minute reaction time]).

A value given as a limit tells only on which side of the number the result lay.

Compound `OCCOc1c(F)cc(N2CC3(CCC3)N[C@H]3CCCC[C@@H]32)cc1Cl` [Example 6] had a free fraction (fraction unbound) at 6 h, 0.001 mmol/L in data set [1] of 0.401. The figures for the inhibition at 10 min, 0.01 mmol/L at CYP2D6 and on CYP3A4 were 15% and 23.3%, respectively. In data set [2], this compound returned a microsomal CLint at 0.001 mmol/L of under 50 µL/min/mg.
The compound `OCCOc1ccc(N2CC3(CCC3)N[C@H]3CCCC[C@@H]32)cc1` [Example 8] showed an unbound share (fraction unbound) at 6 h, 0.001 mmol/L in data set [1] of 0.686. Moreover, the inhibition at 10 min, 0.01 mmol/L was found to be 20.1% at CYP2D6 and 7.1% at CYP3A4. Further, in data set [2], the microsomal CLint at 0.001 mmol/L was under 50 µL/min/mg.
On the same counts, the results for `COc1cc(N2CC3(CCC3)N[C@H]3CCCC[C@@H]32)ccc1OCCO` [Example 11] are 0.767, 14.2%, -1.3% and under 50 µL/min/mg.
On the same counts, the results for `Cc1cc(N2CC3(CCC3)N[C@H]3CCCC[C@@H]32)cc(F)c1OCCO` [Example 14] are 0.615, 20.5%, 14.4% and under 50 µL/min/mg.
In data set [1], `C[C@@H]1CN(c2cc(F)c(OCCO)c(Cl)c2)[C@H]2CCCC[C@@H]2N1` [Example 17, 2-(2-chloro-6-fluoro-4-((3R,4aS,8aS)-3-methyloctahydroquinoxalin-1(2H)-yl)phenoxy)ethan-1-ol 1/2fumarate] showed an unbound share (fraction unbound) at 6 h, 0.001 mmol/L of 0.727. In data set [2], this compound came in with a microsomal CLint at 0.001 mmol/L of under 50 µL/min/mg.
On the same counts, the results for `C[C@H]1CN(c2cc(F)c(OCCO)c(Cl)c2)[C@H]2CCCC[C@H]2N1` [Example 18] are 0.741 and under 50 µL/min/mg.
`C[C@@H]1CN(c2ccc(OC(F)(F)CO)c(Cl)c2)[C@H]2CCCC[C@@H]2N1` [Example 19]: the unbound share (fraction unbound) at 6 h, 0.001 mmol/L in data set [1] was 0.471. Also, the inhibition at 10 min, 0.01 mmol/L on CYP2D6 came out at 5.9%; at CYP3A4 it was 16.1%. In data set [2], the microsomal CLint at 0.001 mmol/L was under 50 µL/min/mg.
For the compound `CC1(C)CN(c2ccc(OC(F)(F)CO)cc2)[C@H]2CCCC[C@@H]2N1` [Example 20, 2-(4-((4aS,8aS)-3,3-dimethyloctahydroquinoxalin-1(2H)-yl)phenoxy)-2,2-difluoroethan-1-ol], the fraction unbound at 6 h, 0.001 mmol/L in data set [1] is 0.569. The same compound came in with a microsomal CLint at 0.001 mmol/L in data set [2] of under 50 µL/min/mg.
The matching figures for `CC1(C)CN(c2ccc(OC(F)(F)CO)cc2)[C@@H]2CCCC[C@H]2N1` [Example 21]: 0.585 and under 50 µL/min/mg.
On the same counts, the results for `COc1cc(N2CC(C)(C)N[C@H]3CCCC[C@@H]32)ccc1OC(F)(F)CO` [Example 26] are 0.58 and under 50 µL/min/mg.
On the same counts, the results for `CC1(C)CN(c2ccc(OCCO)c(Cl)c2)[C@H]2CCCC[C@@H]2N1` [Example 27, 2-(2-chloro-4-((4aS,8aS)-3,3-dimethyloctahydroquinoxalin-1(2H)-yl)phenoxy)ethan-1-ol] are 0.585 and under 50 µL/min/mg.
In the case of `CC1(C)CN(c2ccc(OCCO)c(Cl)c2)[C@@H]2CCCC[C@H]2N1` [Example 28], the fraction unbound at 6 h, 0.001 mmol/L in data set [1] was 0.616. The compound also displayed a microsomal CLint at 0.001 mmol/L in data set [2] of under 50 µL/min/mg.
The compound `Cc1cc(N2CC(C)(C)N[C@H]3CCCC[C@@H]32)ccc1OC(F)(F)CO` [Example 31] gave an unbound share (fraction unbound) at 6 h, 0.001 mmol/L in data set [1] of 0.497. In data set [2], the microsomal CLint at 0.001 mmol/L was under 50 µL/min/mg.
In the case of `Cc1cc(N2CC(C)(C)N[C@@H]3CCCC[C@H]32)ccc1OC(F)(F)CO` [Example 32], the fraction unbound at 6 h, 0.001 mmol/L in data set [1] is 0.482. Also, the microsomal CLint at 0.001 mmol/L in data set [2] was under 50 µL/min/mg.
On the same counts, the results for `CC1(C)CN(c2cc(F)c(OCCO)c(F)c2)[C@H]2CCCC[C@@H]2N1` [Example 34, 2-(4-((4aS,8aS)-3,3-dimethyloctahydroquinoxalin-1(2H)-yl)-2,6-difluorophenoxy)ethan-1-ol] are 0.796 and under 50 µL/min/mg.
On the same counts, the results for `CC1(C)CN(c2cc(F)c(OCCO)c(F)c2)[C@@H]2CCCC[C@H]2N1` [Example 35] are 0.776 and under 50 µL/min/mg.
On the same counts, the results for `CC1(C)CN(c2cc(F)c(OCCO)c(F)c2)[C@H]2CCCC[C@H]2N1` [Example 36] are 0.638 and under 50 µL/min/mg.
As for `CN1[C@H]2CCCC[C@@H]2N(c2ccc(OC(F)(F)CO)cc2)CC1(C)C` [Example 37, 2,2-difluoro-2-(4-((4aS,8aS)-3,3,4-trimethyloctahydroquinoxalin-1(2H)-yl)phenoxy)ethan-1-ol], in data set [1], the unbound share (fraction unbound) at 6 h, 0.001 mmol/L is 0.529. The same compound came in with an intrinsic clearance (microsomal CLint) at 0.001 mmol/L in data set [2] of under 50 µL/min/mg.
In data set [1], `CC1(C)CN(c2ccc(OCCO)c(Cl)c2)[C@H]2CCCC[C@H]2N1` [Example 44, 2-(2-chloro-4-((4aR,8aS)-3,3-dimethyloctahydroquinoxalin-1(2H)-yl)phenoxy)ethan-1-ol 1/2fumarate] gave a fraction unbound at 6 h, 0.001 mmol/L of 0.566. Besides, the inhibition at 10 min, 0.01 mmol/L on CYP2D6 was 10.2%; on CYP3A4 it was -10.7%. For the same compound, the microsomal CLint at 0.001 mmol/L in data set [2] was under 50 µL/min/mg.
On the same counts, the results for `Cc1cc(N2CC(C)(C)N[C@@H]3CCCC[C@@H]32)ccc1OC(F)(F)CO` [Example 48] are 0.413, -7.8%, -9.2% and under 50 µL/min/mg.
`CC1(C)CN(c2ccc(OCCO)c3occc23)[C@@H]2CCCC[C@@H]2N1` [Example 50] gave a free fraction (fraction unbound) at 6 h, 0.001 mmol/L in data set [1] of 0.551. Besides, the figures for the inhibition at 10 min, 0.01 mmol/L on CYP2D6 and on CYP3A4 were 41.8% and 2%, respectively. In data set [2], this compound returned a microsomal CLint at 0.001 mmol/L of under 50 µL/min/mg.
The matching figures for `CC1(C)CN(c2ccc(OCCO)c3occc23)[C@H]2CCCC[C@H]2N1` [Example 51]: 0.553, 17%, 1.1% and under 50 µL/min/mg.
On the same counts, the results for `CC1(C)CN(c2ccc(OCCO)c(F)c2)[C@H]2CCCC[C@H]2N1` [Example 52] are 0.73, 23%, 0.1% and under 50 µL/min/mg.
The matching figures for `Cc1c(N2CC(C)(C)N[C@@H]3CCCC[C@@H]32)ccc(OC(F)(F)CO)c1F` [Example 57]: 0.294, 14.9%, 8.6% and 58 µL/min/mg.

The term fraction unbound denotes free concentration divided by total concentration. Usually inhibition stands for the relative decrease from the control value, in per cent. What is called microsomal CLint is the rate of metabolic loss divided by the concentration. Read a high microsomal CLint as faster metabolism.

Values taken from patent publication US20240409519A1, “HYDROGENATED QUINOXALINES” (OTSUKA PHARMACEUTICAL CO., LTD., priority 2021, published 2024).
